According to patent US9328122B2, “7-substituted Hanfangichin B derivative, and preparation method and use thereof” (HANGZHOU BENSHENG PHARMACEUTICAL CO., LTD., priority 2012, dated 2016):
In brackets after ≈: the same amount, converted by molar mass.

Experiments:
Experiment in all cases: MTT cell growth inhibition, leukemia cells
Format in all cases: cell-based, human
[1] = tested on: H9 (acute lymphoblastic leukemia) cells; conditions: Homo sapiens, H9, 72 h, MTT; for IC50: read-out: IC50; for IC90: read-out: IC90
Text: (§1) Leukemia cell lines: leukemia cell lines: K562adr (drug-resistant, chronic myeloid leukemia, CML), NB4 (acute promyelocytic leukemia, AML), Kasumi-1 (acute myeloid leukemia M2 type, AML-M2), Jurkat (acute lymphoblastic leukemia, ALL), all of which were donated by Cancer Research Institute of Zhejiang University, China; and H9 (acute lymphoblastic leukemia, ALL), which was purchased from China Center for Type Culture Collection.
(§2) Reagents: The standard sample of fangchinoline (FAN) was purchased from Ci Yuan Biotechnology Co., Ltd., Shaanxi, China; and the 7-substituted fangchinoline derivatives according to the present invention.
(§3) 6000 well-growing leukemia cells were obtained and inoculated into wells of a 96-well cell culture plate. The culture medium was a RPMI-1640 cell culture medium containing 10% fetal bovine serum. After adding the 7-substituted fangchinoline derivatives of different concentrations the next day and mixing uniformly, the plate was placed in a carbon dioxide cell incubator (5% CO2) at 37° C. and incubating for 72 hours. Then the viable cell concentration was determined by the MTT method.

[2] = tested on: Jurkat (acute lymphoblastic leukemia) cells; conditions: Homo sapiens, Jurkat, 72 h, MTT; for IC50: read-out: IC50; for IC90: read-out: IC90
Text: as §1, §2, §3

[3] = tested on: Kasumi-1 (acute myeloid leukemia M2 type) cells; conditions: Homo sapiens, Kasumi-1, 72 h, MTT; for IC50: read-out: IC50; for IC90: read-out: IC90
Text: as §1, §2, §3

Row | Structure (SMILES) | IC50 [1] [µg/mL] | IC90 [1] [µg/mL] | IC50 [2] [µg/mL] | IC90 [2] [µg/mL] | IC50 [3] [µg/mL] | IC90 [3] [µg/mL]
1 | COc1ccc2cc1Oc1ccc(cc1)C[C@H]1c3cc(c(OC)cc3CCN1C)Oc1c(OS(=O)(=O)c3ccc(C)cc3)c(OC)cc3c1[C@H](C2)N(C)CC3 [BS-FC-102] | 2.4 (≈ 3.15 µM) | 6.4 (≈ 8.39 µM) | 0.72 (≈ 0.944 µM) | 1.97 (≈ 2.58 µM) | 1.93 (≈ 2.53 µM) | 4.32 (≈ 5.66 µM)
2 | COc1ccc2cc1Oc1ccc(cc1)C[C@H]1c3cc(c(OC)cc3CCN1C)Oc1c(OS(=O)(=O)c3ccccc3)c(OC)cc3c1[C@H](C2)N(C)CC3 [BS-FC-104] | 1 (≈ 1.34 µM) | 4.99 (≈ 6.66 µM) | 0.45 (≈ 0.601 µM) | 3.03 (≈ 4.05 µM) | 0.95 (≈ 1.27 µM) | 3.68 (≈ 4.91 µM)
3 | COc1ccc2cc1Oc1ccc(cc1)C[C@H]1c3cc(c(OC)cc3CCN1C)Oc1c(OCc3cccc(F)c3F)c(OC)cc3c1[C@H](C2)N(C)CC3 [BS-FC-204] | 2.2 (≈ 2.99 µM) | 3.7 (≈ 5.04 µM) | 2.23 (≈ 3.03 µM) | 3.86 (≈ 5.25 µM) | 1.29 (≈ 1.76 µM) | 3.16 (≈ 4.3 µM)
4 | COc1ccc2cc1Oc1ccc(cc1)C[C@H]1c3cc(c(OC)cc3CCN1C)Oc1c(OCC3CC3)c(OC)cc3c1[C@H](C2)N(C)CC3 [BS-FC-208] | 2.01 (≈ 3.03 µM) | 4.28 (≈ 6.46 µM) | 0.75 (≈ 1.13 µM) | 1.88 (≈ 2.84 µM) | 0.97 (≈ 1.46 µM) | 4.01 (≈ 6.05 µM)
5 | C=CCOc1c(OC)cc2c3c1Oc1cc4c(cc1OC)CCN(C)[C@H]4Cc1ccc(cc1)Oc1cc(ccc1OC)C[C@@H]3N(C)CC2 [BS-FC-213] | 2.2 (≈ 3.39 µM) | 4 (≈ 6.17 µM) | 0.64 (≈ 0.986 µM) | 3.29 (≈ 5.07 µM) | 0.93 (≈ 1.43 µM) | 3.66 (≈ 5.64 µM)
6 | COc1ccc2cc1Oc1ccc(cc1)C[C@H]1c3cc(c(OC)cc3CCN1C)Oc1c(OCc3ccc(C(F)(F)F)cc3)c(OC)cc3c1[C@H](C2)N(C)CC3 [BS-FC-216] | 1.8 (≈ 2.35 µM) | 3.3 (≈ 4.3 µM) | 1.42 (≈ 1.85 µM) | 2.91 (≈ 3.79 µM) | 3.22 (≈ 4.2 µM) | 7.22 (≈ 9.42 µM)
7 | COc1ccc2cc1Oc1ccc(cc1)C[C@H]1c3cc(c(OC)cc3CCN1C)Oc1c(OC3CCCC3)c(OC)cc3c1[C@H](C2)N(C)CC3 [BS-FC-220] | 3.23 (≈ 4.77 µM) | 6.64 (≈ 9.81 µM) | 0.93 (≈ 1.37 µM) | 3.09 (≈ 4.57 µM) | 1.15 (≈ 1.7 µM) | 3.72 (≈ 5.5 µM)
8 | C=C(C)COc1c(OC)cc2c3c1Oc1cc4c(cc1OC)CCN(C)[C@H]4Cc1ccc(cc1)Oc1cc(ccc1OC)C[C@@H]3N(C)CC2 [BS-FC-221] | 1.96 (≈ 2.96 µM) | 4 (≈ 6.03 µM) | 0.52 (≈ 0.785 µM) | 1.89 (≈ 2.85 µM) | 1 (≈ 1.51 µM) | 3.39 (≈ 5.11 µM)
9 | COc1ccc2cc1Oc1ccc(cc1)C[C@H]1c3cc(c(OC)cc3CCN1C)Oc1c(OC(=O)C3CC3)c(OC)cc3c1[C@H](C2)N(C)CC3 [BS-FC-304] | 3.6 (≈ 5.32 µM) | 7.05 (≈ 10.4 µM) | 0.81 (≈ 1.2 µM) | 2.94 (≈ 4.34 µM) | 1.54 (≈ 2.28 µM) | 3.94 (≈ 5.82 µM)
